This is an account of results in article PMC7136958, “Targeting the pregnane X receptor using microbial metabolite mimicry” (EMBO Molecular Medicine, 2020).

One data set has as its target T1, AhR (Homo sapiens, UniProt P35869).
T1 construct: endogenous in cells; host or cells: AZ-AHR (HepG2)
T1 sequence (P35869 11-848): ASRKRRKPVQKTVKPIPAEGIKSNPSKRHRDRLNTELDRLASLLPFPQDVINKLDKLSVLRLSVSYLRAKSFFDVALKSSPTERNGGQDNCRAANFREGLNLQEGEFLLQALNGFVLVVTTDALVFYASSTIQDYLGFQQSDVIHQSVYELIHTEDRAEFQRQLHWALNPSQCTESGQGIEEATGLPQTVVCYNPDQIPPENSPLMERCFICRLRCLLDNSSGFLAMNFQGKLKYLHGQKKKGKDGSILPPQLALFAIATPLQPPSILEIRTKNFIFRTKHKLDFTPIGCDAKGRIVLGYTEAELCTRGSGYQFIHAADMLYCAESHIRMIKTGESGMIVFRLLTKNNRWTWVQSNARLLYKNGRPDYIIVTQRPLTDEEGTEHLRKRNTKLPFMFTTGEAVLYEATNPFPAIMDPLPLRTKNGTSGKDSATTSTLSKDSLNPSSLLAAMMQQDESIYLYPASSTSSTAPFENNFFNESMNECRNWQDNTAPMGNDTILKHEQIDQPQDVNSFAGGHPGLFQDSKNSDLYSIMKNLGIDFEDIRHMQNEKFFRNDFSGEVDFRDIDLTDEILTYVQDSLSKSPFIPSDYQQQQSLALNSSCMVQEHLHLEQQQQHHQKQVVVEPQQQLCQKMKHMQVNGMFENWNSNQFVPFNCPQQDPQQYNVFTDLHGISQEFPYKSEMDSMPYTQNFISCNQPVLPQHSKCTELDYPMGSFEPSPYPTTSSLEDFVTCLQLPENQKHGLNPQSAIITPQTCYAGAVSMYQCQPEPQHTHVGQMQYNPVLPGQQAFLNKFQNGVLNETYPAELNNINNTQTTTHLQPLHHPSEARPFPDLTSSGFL
The data set is described as follows: AhR reporter assay, HepG2 cells stably expressing pCYP1A1 luciferase (AZ-AHR). The class given is cell-based. The note with it: for FOLD INDUCTION (AZ-AHR luciferase): AZ-AHR cells, fold vs DMSO. Here is the method:
Incubations were performed in four technical replicates.
(In general: In a reporter assay the amount or activity of a reporter protein is the signal.)

For data set [1], the target named is T2, PXR (Homo sapiens, UniProt O75469).
T2 sequence (O75469 1-434): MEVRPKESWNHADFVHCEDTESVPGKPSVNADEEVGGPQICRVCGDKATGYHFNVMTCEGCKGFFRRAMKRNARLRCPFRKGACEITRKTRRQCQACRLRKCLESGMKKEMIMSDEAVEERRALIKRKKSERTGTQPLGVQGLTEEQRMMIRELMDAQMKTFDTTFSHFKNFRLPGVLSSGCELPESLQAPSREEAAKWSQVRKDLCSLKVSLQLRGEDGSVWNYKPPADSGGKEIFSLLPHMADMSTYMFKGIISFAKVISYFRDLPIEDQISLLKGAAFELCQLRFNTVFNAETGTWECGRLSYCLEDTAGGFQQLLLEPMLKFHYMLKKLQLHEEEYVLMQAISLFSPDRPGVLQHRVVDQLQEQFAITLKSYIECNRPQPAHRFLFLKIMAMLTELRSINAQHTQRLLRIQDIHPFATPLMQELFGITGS
The data set is described as follows: PXR reporter (p3A4-luc luciferase) assay in LS180 cells transiently transfected with wild-type PXR. The following applies: for FOLD INDUCTION of PXR reporter luciferase activity: 24 h, over UT. Here is the method:
Incubations were performed in four technical replicates. After the treatments, cells were lysed and luciferase activity was measured on Tecan Infinite M200 Pro plate reader (Schoeller Instruments, Prague, Czech Republic). The data are expressed as fold induction ± SD of luciferase activity over the control cells (agonistic mode—in the absence of a model ligand) or as a percentage of maximal activation ± SD (antagonistic mode—in the presence of a model ligand). […] For all the transfection experiments, specifically multiplexed transfections, the control wells were mock‐transfected ([…]). However, to exclude non‐specific binding of PXR (or other factors) upstream of the luciferase gene within non‐PXR‐binding elements, we performed pilot experiments in different cell passages (P11, P14, and P17) of LS174T cells using a mock luciferase plasmid (luciferase not containing an upstream PXR‐binding element of the CYP3A4 promoter).

The subject of data set [2] is PXR occupancy of CYP3A4 and MDR1 promoter. The data set is described as follows: Chromatin immunoprecipitation (ChIP) in PXR-transfected LS174T cells. The note with it: 10 μM; relative to DMSO = 1; each column a repeat experiment (Fig 1d).
Method: LS174T cells were transfected with pSG5‐PXR (2 μg/plate/1 × 10^7 cells). […] Briefly, cells were chemically cross‐linked with formaldehyde in culture media for 15 min at room temperature. […] Cells were rinsed twice with cold PBS (phosphate‐buffered saline) (pH 7.5) and scraped in PBS supplemented with PIC (protease inhibitor cocktail).
Cell pellets were collected and immediately resuspended in immunoprecipitation (IP) buffer (150 mM NaCl (sodium chloride), 50 mM Tris–HCl at pH 7.5, 5 mM EDTA (ethylenediaminetetraacetic acid), 0.5% NP‐40, 1% Triton X‐100). The nuclei were centrifuged at 12,000 × g for 1 min and resuspended in fresh IP buffer. Chromatin was sheared by sonication to an average size of 0.2‐0.9 kb. Lysates were cleared by centrifugation at 12,000 × g for 10 min. […] 10% (wt/vol) Chelex 100 was added to the beads followed by boiling of the suspension and centrifugation at 12,000 × g for 1 min to obtain chromatin.
Purified chromatin DNA was used to perform RT–qPCR. […] Data were analyzed using SDS 2.2.1 program (ABI Biotechnology).
Another data set relates to IL-8 mRNA. Briefly: TNF-α-induced IL-8 mRNA in human colonic enteroids (Calgary Protocol). The format is cell-based. The following applies: 10 μM, pair-wise vs DMSO. Here is the method: Samples were immediately processed to yield isolated colonic crypts as previously described (Fernando et al, 2017). Isolated colonic crypts were embedded in Matrigel® (Corning) and cultured in Intesticult^tm Organoid Growth Media. Human organoids were pretreated for 6 h with either FKK5, FKK6, FKK9, or vehicle (DMSO), then stimulated with human recombinant TNF‐alpha in the presence of either treatment for an additional 12 h. Organoids were washed in PBS, disrupted in Tri Reagent® (Sigma, Oakville, ON, CAN), and frozen at −80°C. After thawing, chloroform was added, samples were centrifuged for 15 min, and the resulting aqueous phase was then added to equal volumes of 70% ethanol and further processed using the RNeasy mini kit (Qiagen). cDNA was synthesized using the QuantiTect RT kit (Qiagen) according to the manufacturer's protocol. Resulting cDNA was used as a template for quantitative real‐time PCR using Perfecta SYBR Green FastMix with ROX (QuantaBio). PCR and analysis were performed using a StepOne PCR System (Applied Biosystems). Gene expression was calculated relative to β‐actin expression and expressed as fold change of control. The primers used were as follows: Human®‐Actin (NM_001101), Human CYP3A4 (NM_001202855), and Human ABCB1 (NM_000927).

Data set [3] deals with T2, PXR. The data set is described as follows: Ligand efficiency metric (LEM) analysis. On the set-up: expressed in transfected cells; host or cells: LS180. The note with it: NSEI-nBEI plane, from PXR reporter Emax. An excerpt:
Ligand efficiency metric (LEM) analysis for FKK ligand efficiency. The ligand efficiency metrics (LEMs) of compounds FKK1 to 10 and FKK999 as a reference compound, have been analyzed by using a web tool named AtlasCBS which represents LEMs as variables for a Cartesian mapping of chemico-biological space (CBS). In particular, Cartesian planes combine three critical variables in drug discovery (affinity, size, and polarity) into easily interpretable ‘efficiency planes’ useful to guide a drug discovery process. In the Cartesian plane, each target:ligand pair appears as a point whose coordinates are given by pairs of values derived from the affinity of the ligand toward the target (Ki or equivalent) in relation to its size (MW or number of non-hydrogen atoms NHA), and its polarity (expressed as Polar Surface Area, PSA, or number of polar atoms, NPOL = count of N + O). The first one represents a size-related LEM and the second a polarity-related LEM. Consistently, compounds that correspond to marketed drugs typically occupy the upper right quadrant of the plots (‘Nort h-East’ direction, NE), where both the efficiency -pe r-size and efficiency -per-polarity are optimized 1,2.
Our results are represented in the efficiency plane NS EI-nBEI where:
NSEI = –log Ki/NPOL (N, O) = pKi/NPOL (N, O)
As a measure of activity of the above compounds, the reciprocal of the percentage efficacy values (1/Efficacy [%]) obtained in the PXR-dependent luciferase activity test (Emax values from Fig. 1) were used in lieu of the affinity constants (Ki in the above equations). FKK4 would appear as the most efficient compound since it is placed in the NE panel (GL, unpublished observations). However, this congener might suffer from metabolic liability with its N-protecting group possibly generating toxic aldehydes by oxidative cleavage in vivo. Unambiguously, the two most efficient compounds besides FKK4 are FKK5 and FKK6 which were therefore considered suitable lead compounds, as al so

A further data set concerns rats. On the set-up: method as in Thermo Fisher Scientific Safety Sheet data. The following applies: oral in rats; ref Thermo Fisher Scientific Safety Sheet data; cited from earlier work.

Several values for one entry are separate records, joined by “and”; a condition that tells them apart may be missing. Equal values may be shown once.

On AhR (10 μM), `CCOCn1c(C(O)(Cc2cc3ccccc3[nH]2)c2ccncc2)cc2ccccc21` (racemic) [FKK9] came in with an AhR activation of more than 100 fold. Moreover, the “FOLD INDUCTION (AZ-AHR luciferase)” value on AhR (1 nM) turned out to be 0.6 fold; on AhR (10 nM) it was 0.4 fold; at AhR (100 nM), 1.3 fold; at AhR (1µM) it was 15.9 fold; at AhR (10 µM), 584.9 fold. The “aver (mean luciferase signal of H1-H4)” value turned out to be 4233.7 at PXR [1] (1 nM); 4676.8 at PXR [1] (10 nM); 5944.0 at PXR [1] (100 nM); 19145.3 on PXR [1] (1 uM); 98175.8 on PXR [1] (10 uM); 68593.5 on PXR [1] (25 uM). Besides, the “FOLD INDUCTION of PXR reporter luciferase activity” value stood at 1.1 fold on PXR [1] (1 nM); 1.2 fold on PXR [1] (10 nM); 1.6 fold on PXR [1] (100 nM); 5.0 fold on PXR [1] (1 uM); 25.8 fold at PXR [1] (10 uM); 18.0 fold on PXR [1] (25 uM). In data set [2], the “CYP3A4 Fold Expression (2-ΔΔCt)” value is 0.943 and 0.9893 and 1.172 and 1.777. Moreover, in the data set on IL-8 mRNA, the “TNF-α-induced IL-8 mRNA levels” value is on record as “did not show significant effects”.
As to `CC#CC(O)(c1ccncc1)c1cc2ccccc2n1COCC` (stereo not shown) [FKK4], the “AhR activation (in words)” value on AhR was “variable degrees of dose‐dependent AhR activation profiles”. The “FOLD INDUCTION (AZ-AHR luciferase)” value came out at 0.8 fold on AhR (1 nM); 0.644 fold on AhR (10 nM); 0.8 fold on AhR (100 nM); 1.2 fold on AhR (1µM); 7.1 fold on AhR (10 µM). Besides, the LEM analysis prediction result on PXR [3] is listed as “efficient agonist”. Further, the “aver (mean luciferase signal of H1-H4)” value on PXR [1] (1 nM) was found to be 4365.5; on PXR [1] (10 nM), 4279.3; on PXR [1] (100 nM), 5499.3; at PXR [1] (1 uM), 21392.8; at PXR [1] (10 uM), 102793.8; at PXR [1] (25 uM) it was 122639.5. The “FOLD INDUCTION of PXR reporter luciferase activity” value on PXR [1] (1 nM) is given as 1.4 fold; on PXR [1] (10 nM), 1.3 fold; at PXR [1] (100 nM), 1.7 fold; at PXR [1] (1 uM) it was 6.7 fold; on PXR [1] (10 uM), 32.2 fold; on PXR [1] (25 uM), 38.4 fold.
For the molecule `c1ccc2[nH]ccc2c1` [indole], the LD50 in the data set on rats is on record as ~ 1 g/kg.
